This is an account of results in patent publication US7772260B2, “Imidazo[2,1-b]-1,3,4-thiadiazole sulfonamides” (Aegera Therapeutics Inc., priority 2001, dated 2010).

Structures are written as SMILES. Counter-ions that a name gives are not always drawn.

The subject of one assay is SCG neurons. The experiment in a line: cells. It counts as cell-based, Sprague Dawley rats. As to conditions: Rattus norvegicus, Neuron; Taxol™ (50 ng/mL), viability 48 hours later, MTS; read-out: IC(50), protection of SCG neurons from Taxol killing. The procedure: Taxol™ is regularly used in breast cancer chemotherapy. In cancer cells Taxol™ binds to the cyto-skeletal protein tubulin, thereby inhibiting normal microtubular assembly and inducing cellular apoptosis. Despite its potency as an anti-tumour agent, Taxol™ is also toxic to neurons, inducing dose limiting peripheral neuropathies. The addition of Taxol™ (100 ng/mL) to cultured SCG neurons induces the degradation or loss of upwards of 80% of the neurons.
FIG. 1 illustrates the protection provided by compound 1 (referred to here as AEG3482) against Taxol™ induced killing. PI Sprague Dawley rat SCG neurons were cultured and incubated with NGF (50 ng/mL) for 5 days.
Turning to `NS(=O)(=O)c1nn2cc(-c3cccc4ccccc34)nc2s1` [Compound 61, 6-(1-Naphthyl)imidazo[2,1-b]-1,3,4-thiadiazole-2-sulfonamide], the IC50 was found to be 10 µM.

As for `NS(=O)(=O)c1nn2cc(-c3ccc(N4CCOCC4)cc3)nc2s1` [Compound 68, 6-(4-Morpholinophenyl)imidazo[2,1-b]-1,3,4-thiadiazole-2-sulfonamide], the IC50 is 7 µM.

`CC(=O)N[C@@H](C)c1ccc(-c2cn3nc(S(N)(=O)=O)sc3n2)cc1` [Compound 58, 6-(4-(S-1-acetamidoethyl)phenyl)imidazo[2,1-b]-1,3,4-thiadiazole-2-sulfonamide]: the IC50 was determined as 30 µM.

On to `NS(=O)(=O)c1nn2cc(-c3cnccn3)nc2s1` [Compound 108], for which the IC50 turned out to be 5 µM.

As for `NS(=O)(=O)c1nn2c(Br)c(-c3ccccc3)nc2s1` [Compound 124, 5-Bromo-6-phenyl-imidazo[2,1-b]-1,3,4-thiadiazole-2-sulfonamide hydrobromide], the IC50 came to 3 µM.

In the case of `NS(=O)(=O)c1nn2cc(-c3ccc(OCCCOCc4ccccc4)cc3)nc2s1` [Compound 32], the IC50 amounted to 10 µM.

On to `NS(=O)(=O)c1nn2c(Cl)c(-c3ccc(-c4ccccc4)cc3)nc2s1` [Compound 131, 5-Chloro-6-(biphenyl)imidazo[2,1-b]-1,3,4-thiadiazole-2-sulfonamide hydrobromide], for which the IC50 is 3 µM.

Take `NS(=O)(=O)c1nn2cc(-c3ccc4c(c3)NC(=O)CO4)nc2s1` [Compound 110]: the IC50 is over 30 µM.

Consider `CN(C)S(=O)(=O)c1nn2cc(-c3c(F)c(F)c(N=[N+]=[N-])c(F)c3F)nc2s1` [Compound 152, 6-(4-azido-2,3,5,6-pentafluorophenyl)imidazo[2,1-b]-1,3,4-thiadiazole-2-N,N-dimethylsulfonamide], for which the IC50 amounted to 2 µM.

For `Cc1onc(-c2ccccc2)c1-c1cn2nc(S(N)(=O)=O)sc2n1` [Compound 118, 6-(5-Methyl-3-phenylisoxazol-4-yl)imidazo[2,1-b]-1,3,4-thiadiazole-2-sulfonamide], the IC50 was found to be 17 µM.

For `NS(=O)(=O)c1nn2cc(-c3nccs3)nc2s1` [Compound 121, 6-(Thiaxol-2-yl)imidazo[2,1-b]-1,3,4-thiadiazole-2-sulfonamide], the IC50 was determined as 2 µM.

`NS(=O)(=O)c1nn2cc(-c3ccncc3)nc2s1` [Compound 107, 6-(4-Pyridyl)imidazo[2,1-b]-1,3,4-thiadiazole-2-sulfonamide]: the IC50 was determined as 20 µM.

In the case of `Cc1c(-c2cn3nc(S(N)(=O)=O)sc3n2)cnn1-c1ccccc1` [Compound 120, 6-(5-methyl-1-phenyl-1H-pyrazol-4-yl)imidazo[2,1-b]-1,3,4-thiadiazole-2-sulfonamide], the IC50 amounted to 7 µM.

Regarding `NS(=O)(=O)c1nn2cc(-c3ccc(N4CCCCC4)cc3)nc2s1` [Compound 67, 6-(4-Piperidinophenyl)imidazo[2,1-b]-1,3,4-thiadiazole-2-sulfonamide], the IC50 amounted to 10 µM.

On to `NS(=O)(=O)c1nn2cc(-c3ccc([N+](=O)[O-])s3)nc2s1` [Compound 114, 6-(5-Nitro-2-thiophenyl)-imidazo[2,1-b]-1,3,4-thiadiazole-2-sulfonamide hydrobromide], for which the IC50 amounted to 7 µM.

Turning to `Nc1ccc(-c2cn3nc(S(N)(=O)=O)sc3n2)cc1` [Compound 70, 6-(4-Aminophenyl)imidazo[2,1-b]-1,3,4-thiadiazole-2-sulfonamide], the IC50 came to 22 µM.

Still in this assay, the particulars now being: concentrations as high as 50 μM.
Take `CC(=O)Nc1nnc(S(N)(=O)=O)s1` [acetazolamide, reference compound]: the “inhibition of Taxol™ induced killing of SCGs” value (from here on “inhibition”) was “failed to significantly inhibit”.

Turning to `CC(=O)Nc1ccc(S(=O)(=O)Nc2nnc(S(N)(=O)=O)s2)cc1` [N-acetylaminobenzolamide, reference compound], the “inhibition” value is reported as “failed to significantly inhibit”.

For the molecule `Nc1ccc(S(=O)(=O)Nc2nnc(S(N)(=O)=O)s2)cc1` [aminobenzolamide, reference compound], the “inhibition” value is “failed to significantly inhibit”.
